US12404295B2, “(Hetero)aryl-methyl-thio-beta-D-galactopyranoside derivatives” (Idorsia Pharmaceuticals Ltd, priority 2019, dated 2025)
Where two headings read alike, the source gives them in different places.

How the values were obtained:
human Gal-1 (hGal-1) = human Gal-1 (hGal-1) (Homo sapiens (Human), UniProt P09382); assay: competitive binding assay: biotinylated hGal-1 binding to microplate-adsorbed asialofetuin (ASF); settings: Table 15; read-out: IC50 (Galectin-1 inhibition)
Summary of the method: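 Biotinylated human Gal-1 (300-1000 ng/mL) competes with serially diluted compound for binding to ASF-coated plates, 3 h at 4° C. Bound protein detected with streptavidin-peroxidase and ABTS substrate (spectrophotometric). IC50 given as mean of several measurements.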

human Gal-3 (hGal-3) = human Gal-3 (hGal-3) (Homo sapiens (Human), UniProt P17931); assay: competitive binding assay: biotinylated hGal-3 binding to microplate-adsorbed asialofetuin (ASF)
Summary of the method: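 Peroxidase activity developed with ABTS measures the biotinylated hGal-3 remaining on the asialofetuin-coated surface after competition with test compounds. Incubation ran 3 h at 4 °C, followed by 1 h with streptavidin-peroxidase at 80 ng/mL.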

[1] = Gal-3 inhibition, binding of biotinylated hGal-3 to ASF, mean values, read-out: IC50
[2] = Table 5, read-out: IC50 (Gal-3 inhibition)

human Gal-1 (hGal-1), sequence (P09382 whole entry): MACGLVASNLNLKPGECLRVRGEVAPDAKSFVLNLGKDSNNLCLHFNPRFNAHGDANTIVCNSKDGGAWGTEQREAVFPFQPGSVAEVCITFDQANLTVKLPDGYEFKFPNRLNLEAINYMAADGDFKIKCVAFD
human Gal-3 (hGal-3), sequence (P17931 whole entry): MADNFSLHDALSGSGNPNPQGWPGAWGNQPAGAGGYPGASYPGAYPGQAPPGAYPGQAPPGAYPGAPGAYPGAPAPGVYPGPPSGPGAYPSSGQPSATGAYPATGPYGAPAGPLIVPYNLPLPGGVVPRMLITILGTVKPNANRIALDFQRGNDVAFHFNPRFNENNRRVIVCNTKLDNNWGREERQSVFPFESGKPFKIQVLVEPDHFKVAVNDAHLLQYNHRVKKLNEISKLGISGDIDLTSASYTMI

SMILES	IC50 (human Gal-1 (hGal-1)) [µM]	IC50 (human Gal-3 (hGal-3); [1]) [µM]	IC50 (human Gal-3 (hGal-3); [2]) [µM]
CCC(O)(CC)[C@@H](S[C@@H]1O[C@H](CO)[C@H](O)[C@H](n2cc(-c3cc(F)c(F)c(F)c3)nn2)[C@H]1O)c1conc1C [Example 2.32.120S., (2S,3R,4S,5R,6R)-2-(((S)-2-Ethyl-2-hydroxy-1-(3-methylisoxazol-4-yl)butyl)thio)-6-(hydroxymethyl)-4-(4-(3,4,5-trifluorophenyl)-1H-1,2,3-triazol-1-yl)tetrahydro-2H-pyran-3,5-diol]	77.4	11.3	
OC[C@H]1O[C@@H](SC(c2ccccc2C(F)(F)F)C2(O)CC(F)(F)C2)[C@H](O)[C@@H](n2cc(-c3cc(F)c(F)c(F)c3)nn2)[C@H]1O (stereo partly drawn) [Example 2.33.112., (2S,3R,4S,5R,6R)-2-(((3,3-Difluoro-1-hydroxycyclobutyl)(2-(trifluoromethyl)phenyl)methyl)thio)-6-(hydroxymethyl)-4-(4-(3,4,5-trifluorophenyl)-1H-1,2,3-triazol-1-yl)tetrahydro-2H-pyran-3,5-diol]	1.8		0.25
OC[C@H]1O[C@@H](S[C@H](c2ccccc2C(F)(F)F)C2(O)CC(F)(F)C2)[C@H](O)[C@@H](n2cc(-c3cc(F)c(F)c(F)c3)nn2)[C@H]1O [Example 2.33.112R., (2S,3R,4S,5R,6R)-2-(((R)-(3,3-Difluoro-1-hydroxycyclobutyl)(2-(trifluoromethyl)phenyl)methyl)thio)-6-(hydroxymethyl)-4-(4-(3,4,5-trifluorophenyl)-1H-1,2,3-triazol-1-yl)tetrahydro-2H-pyran-3,5-diol]	0.67		0.14
OC[C@H]1O[C@@H](S[C@@H](c2ccccc2C(F)(F)F)C2(O)CC(F)(F)C2)[C@H](O)[C@@H](n2cc(-c3cc(F)c(F)c(F)c3)nn2)[C@H]1O [Example 2.33.112S.]	21.7		11.3
Cc1ccccc1C(S[C@@H]1O[C@H](CO)[C@H](O)[C@H](n2cc(-c3cc(F)c(F)c(F)c3)nn2)[C@H]1O)C1(O)CCC1 (stereo partly drawn) [Example 2.34.102., (2S,3R,4S,5R,6R)-2-(((1-Hydroxycyclobutyl)(o-tolyl)methyl)thio)-6-(hydroxymethyl)-4-(4-(3,4,5-trifluorophenyl)-1H-1,2,3-triazol-1-yl)tetrahydro-2H-pyran-3,5-diol]	11		1
Cc1ccccc1C(S[C@@H]1O[C@H](CO)[C@H](O)[C@H](n2cc(-c3cc(F)c(F)c(F)c3)nn2)[C@H]1O)C1(O)CC(C)(C)C1 (stereo partly drawn) [Example 2.35.102., (2S,3R,4S,5R,6R)-2-(((1-Hydroxy-3,3-dimethylcyclobutyl)(o-tolyl)methyl)thio)-6-(hydroxymethyl)-4-(4-(3,4,5-trifluorophenyl)-1H-1,2,3-triazol-1-yl)tetrahydro-2H-pyran-3,5-diol]	6.22		0.35
Cc1ccccc1C(S[C@@H]1O[C@H](CO)[C@H](O)[C@H](n2cc(-c3cc(F)c(F)c(F)c3)nn2)[C@H]1O)C1(O)CC(C)C1 (stereo partly drawn) [Example 2.36.102., (2S,3R,4S,5R,6R)-2-(((1-Hydroxy-3-methylcyclobutyl)(o-tolyl)methyl)thio)-6-(hydroxymethyl)-4-(4-(3,4,5-trifluorophenyl)-1H-1,2,3-triazol-1-yl)tetrahydro-2H-pyran-3,5-diol]	13.2		0.46
Cc1ccccc1[C@@H](S[C@@H]1O[C@H](CO)[C@H](O)[C@H](n2cc(-c3cc(F)c(F)c(F)c3)nn2)[C@H]1O)C1(O)CC(C)C1 (stereo partly drawn) [Example 2.36.102R., (2S,3R,4S,5R,6R)-2-(((1R)-(1-Hydroxy-3-methylcyclobutyl)(o-tolyl)methyl)thio)-6-(hydroxymethyl)-4-(4-(3,4,5-trifluorophenyl)-1H-1,2,3-triazol-1-yl)tetrahydro-2H-pyran-3,5-diol]	3.5		0.44
Cc1ccccc1[C@H](S[C@@H]1O[C@H](CO)[C@H](O)[C@H](n2cc(-c3cc(F)c(F)c(F)c3)nn2)[C@H]1O)C1(O)CC(C)C1 (stereo partly drawn) [Example 2.36.102S., (2S,3R,4S,5R,6R)-2-(((1S)-(1-Hydroxy-3-methylcyclobutyl)(o-tolyl)methyl)thio)-6-(hydroxymethyl)-4-(4-(3,4,5-trifluorophenyl)-1H-1,2,3-triazol-1-yl)tetrahydro-2H-pyran-3,5-diol]	54.2		7.2
Cc1ccccc1C(S[C@@H]1O[C@H](CO)[C@H](O)[C@H](n2cc(-c3cc(F)c(F)c(F)c3)nn2)[C@H]1O)C1(O)CC(C)C1C (stereo partly drawn) [Example 2.37.102., (2S,3R,4S,5R,6R)-2-(((1-Hydroxy-2,3-dimethylcyclobutyl)(o-tolyl)methyl)thio)-6-(hydroxymethyl)-4-(4-(3,4,5-trifluorophenyl)-1H-1,2,3-triazol-1-yl)tetrahydro-2H-pyran-3,5-diol]	5.36		0.56
Cc1ccccc1C(S[C@@H]1O[C@H](CO)[C@H](O)[C@H](n2cc(-c3cc(F)c(F)c(F)c3)nn2)[C@H]1O)C1(O)CCCC1 (stereo partly drawn) [Example 2.38.102., (2S,3R,4S,5R,6R)-2-(((1-Hydroxycyclopentyl)(o-tolyl)methyl)thio)-6-(hydroxymethyl)-4-(4-(3,4,5-trifluorophenyl)-1H-1,2,3-triazol-1-yl)tetrahydro-2H-pyran-3,5-diol]	2.9		0.18
Cc1ccccc1[C@@H](S[C@@H]1O[C@H](CO)[C@H](O)[C@H](n2cc(-c3cc(F)c(F)c(F)c3)nn2)[C@H]1O)C1(O)CCCC1 [Example 2.38.102R., (2S,3R,4S,5R,6R)-2-(((R)-(1-Hydroxycyclopentyl)(o-tolyl)methyl)thio)-6-(hydroxymethyl)-4-(4-(3,4,5-trifluorophenyl)-1H-1,2,3-triazol-1-yl)tetrahydro-2H-pyran-3,5-diol]	1.8		0.11
Cc1ccccc1[C@H](S[C@@H]1O[C@H](CO)[C@H](O)[C@H](n2cc(-c3cc(F)c(F)c(F)c3)nn2)[C@H]1O)C1(O)CCCC1 [Example 2.38.102S., (2S,3R,4S,5R,6R)-2-(((S)-(1-Hydroxycyclopentyl)(o-tolyl)methyl)thio)-6-(hydroxymethyl)-4-(4-(3,4,5-trifluorophenyl)-1H-1,2,3-triazol-1-yl)tetrahydro-2H-pyran-3,5-diol]	17		2.75
OC[C@H]1O[C@@H](SC(c2ncccc2C(F)(F)F)C2(O)CCCC2)[C@H](O)[C@@H](n2cc(-c3cc(F)c(F)c(F)c3)nn2)[C@H]1O (stereo partly shown) [Example 2.38.125.]	0.76	0.13	
OC[C@H]1O[C@@H](S[C@H](c2ncccc2C(F)(F)F)C2(O)CCCC2)[C@H](O)[C@@H](n2cc(-c3cc(F)c(F)c(F)c3)nn2)[C@H]1O [Example 2.38.125R., (2S,3R,4S,5R,6R)-2-(((R)-(1-Hydroxycyclopentyl)(3-(trifluoromethyl)pyridin-2-yl)methyl)thio)-6-(hydroxymethyl)-4-(4-(3,4,5-trifluorophenyl)-1H-1,2,3-triazol-1-yl)tetrahydro-2H-pyran-3,5-diol]	0.48	0.08	
OC[C@H]1O[C@@H](S[C@@H](c2ncccc2C(F)(F)F)C2(O)CCCC2)[C@H](O)[C@@H](n2cc(-c3cc(F)c(F)c(F)c3)nn2)[C@H]1O [Example 2.38.125S., (2S,3R,4S,5R,6R)-2-(((S)-(1-Hydroxycyclopentyl)(3-(trifluoromethyl)pyridin-2-yl)methyl)thio)-6-(hydroxymethyl)-4-(4-(3,4,5-trifluorophenyl)-1H-1,2,3-triazol-1-yl)tetrahydro-2H-pyran-3,5-diol]	15.1	5.62	
Cc1ccccc1C(S[C@@H]1O[C@H](CO)[C@H](O)[C@H](n2cc(-c3cc(F)c(F)c(F)c3)nn2)[C@H]1O)C1(O)CCCCC1 (stereo partly drawn) [Example 2.39.102., (2S,3R,4S,5R,6R)-2-(((1-Hydroxycyclohexyl)(o-tolyl)methyl)thio)-6-(hydroxymethyl)-4-(4-(3,4,5-trifluorophenyl)-1H-1,2,3-triazol-1-yl)tetrahydro-2H-pyran-3,5-diol]	1.6		0.09
Cc1ccccc1[C@@H](S[C@@H]1O[C@H](CO)[C@H](O)[C@H](n2cc(-c3cc(F)c(F)c(F)c3)nn2)[C@H]1O)C1(O)CCCCC1 [Example 2.39.102R., (2S,3R,4S,5R,6R)-2-(((R)-(1-Hydroxycyclohexyl)(o-tolyl)methyl)thio)-6-(hydroxymethyl)-4-(4-(3,4,5-trifluorophenyl)-1H-1,2,3-triazol-1-yl)tetrahydro-2H-pyran-3,5-diol]	1.14		0.09
Cc1ccccc1[C@H](S[C@@H]1O[C@H](CO)[C@H](O)[C@H](n2cc(-c3cc(F)c(F)c(F)c3)nn2)[C@H]1O)C1(O)CCCCC1 [Example 2.39.102S., (2S,3R,4S,5R,6R)-2-(((S)-(1-Hydroxycyclohexyl)(o-tolyl)methyl)thio)-6-(hydroxymethyl)-4-(4-(3,4,5-trifluorophenyl)-1H-1,2,3-triazol-1-yl)tetrahydro-2H-pyran-3,5-diol]	24		4.54
Cc1nc(C)c([C@@H](S[C@@H]2O[C@H](CO)[C@H](O)[C@H](n3cc(-c4cc(F)c(F)c(F)c4)nn3)[C@H]2O)C2(O)CCCCC2)nc1C [Example 2.39.119R., (2S,3R,4S,5R,6R)-2-(((R)-(1-Hydroxycyclohexyl) (3,5,6-trimethylpyrazin-2-yl)methyl)thio)-6-(hydroxymethyl)-4-(4-(3,4,5-trifluorophenyl)-1H-1,2,3-triazol-1-yl)tetrahydro-2H-pyran-3,5-diol]	0.73		0.07
